According to US10189841B2, “Purinones as ubiquitin-specific protease 1 inhibitors” (Forma Therapeutics, Inc., priority 2015, dated 2019):

The compounds below were run against USP1 (construct USP1 (I-785, GG670, 671AA)/UAF1 (I-677)-Flag) (Homo sapiens (Human), UniProt O94782, G670A/G671A) (assay: Ubiquitin-Rhodamine 110 assay for USP1 activity). Settings: USP1/UAF1 25 pM, Ub-Rh110 25 nM, 30 min preincubation.
Chain of USP1 (construct USP1 (I-785, GG670, 671AA)/UAF1 (I-677)-Flag) (O94782 whole entry G670A/G671A): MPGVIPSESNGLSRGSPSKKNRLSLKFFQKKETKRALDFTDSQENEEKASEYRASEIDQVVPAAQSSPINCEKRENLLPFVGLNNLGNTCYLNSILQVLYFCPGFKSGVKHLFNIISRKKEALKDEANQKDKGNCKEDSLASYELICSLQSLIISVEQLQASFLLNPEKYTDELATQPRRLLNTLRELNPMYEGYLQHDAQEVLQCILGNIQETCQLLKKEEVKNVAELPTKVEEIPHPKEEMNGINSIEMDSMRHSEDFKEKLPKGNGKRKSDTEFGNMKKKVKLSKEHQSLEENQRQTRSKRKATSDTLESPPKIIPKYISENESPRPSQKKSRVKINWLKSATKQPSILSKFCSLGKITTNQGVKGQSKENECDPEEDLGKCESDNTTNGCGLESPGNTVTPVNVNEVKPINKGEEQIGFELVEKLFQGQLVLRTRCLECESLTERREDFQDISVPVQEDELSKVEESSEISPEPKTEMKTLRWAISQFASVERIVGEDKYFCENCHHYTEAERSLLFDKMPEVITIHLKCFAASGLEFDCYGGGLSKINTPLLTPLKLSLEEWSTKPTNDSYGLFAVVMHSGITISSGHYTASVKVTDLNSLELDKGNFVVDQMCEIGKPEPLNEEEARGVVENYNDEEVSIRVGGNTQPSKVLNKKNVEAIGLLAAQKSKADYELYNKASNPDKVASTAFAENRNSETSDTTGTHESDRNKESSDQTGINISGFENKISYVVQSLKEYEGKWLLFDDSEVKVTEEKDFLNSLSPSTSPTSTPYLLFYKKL
Chain of USP1 (construct USP1 (I-785, GG670, 671AA)/UAF1 (I-677)-Flag) (Q8TAF3 whole entry partner): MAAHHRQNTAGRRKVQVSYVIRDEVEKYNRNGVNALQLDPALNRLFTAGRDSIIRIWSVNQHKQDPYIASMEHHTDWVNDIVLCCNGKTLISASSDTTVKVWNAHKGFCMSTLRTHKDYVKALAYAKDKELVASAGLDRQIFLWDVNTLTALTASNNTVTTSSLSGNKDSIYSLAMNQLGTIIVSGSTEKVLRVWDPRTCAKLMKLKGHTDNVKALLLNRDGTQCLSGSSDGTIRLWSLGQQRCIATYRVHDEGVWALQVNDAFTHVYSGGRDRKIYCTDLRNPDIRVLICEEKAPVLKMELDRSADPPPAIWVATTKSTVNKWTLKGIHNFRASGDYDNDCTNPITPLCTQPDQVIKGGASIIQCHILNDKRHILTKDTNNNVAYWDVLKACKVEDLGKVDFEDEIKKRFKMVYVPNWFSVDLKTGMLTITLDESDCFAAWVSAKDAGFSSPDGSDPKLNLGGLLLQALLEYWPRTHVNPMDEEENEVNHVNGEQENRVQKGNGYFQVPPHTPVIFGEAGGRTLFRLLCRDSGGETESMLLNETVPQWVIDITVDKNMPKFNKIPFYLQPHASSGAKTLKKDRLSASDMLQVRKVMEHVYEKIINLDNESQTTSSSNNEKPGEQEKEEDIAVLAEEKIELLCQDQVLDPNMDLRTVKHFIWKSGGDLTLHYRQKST
Type: biochemical
Method in brief: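 Ub-Rh110 (25 nM, ≪Km) cleavage read at ex 485/em 535 in Tris pH 8.0, CaCl2, GSH, Prionex, Triton X-100. The screen used 10 µM compound, 100 pM USP1/UAF1 and 45 min at RT.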
COCCn1ccnc1-c1ccc(Cn2c(=O)n(C)c3cnc(-c4ccccc4C(C)C)nc32)cc1 [Compound I-498, 2-(2-isopropylphenyl)-9-(4-(1-(2-methoxyethyl)-1H-imidazol-2-yl)benzyl)-7-methyl-7,9-dihydro-8H-purin-8-one] was tested, and the IC50 was < 50 nM.
In the case of CC(C)c1ccccc1-c1ncc2c(n1)n(Cc1ccc(-c3nccn3C3CCNCC3)cc1)c(=O)n2C [Compound I-499, 2-(2-isopropylphenyl)-7-methyl-9-(4-(1-(piperidin-4-yl)-1H-imidazol-2-yl)benzyl)-7,9-dihydro-8H-purin-8-one], the IC50 is reported as < 50 nM.
CC(C)c1ccccc1-c1ncc2c(n1)n(Cc1ccc(-c3nccn3C(F)F)cc1)c(=O)n2C [Compound I-500, 9-(4-(1-(difluoromethyl)-1H-imidazol-2-yl)benzyl)-2-(2-isopropylphenyl)-7-methyl-7,9-dihydro-8H-purin-8-one] was tested, and the IC50 was < 50 nM.
With Cc1cn(C)c(N2CCC(Cn3c(=O)n(C)c4cnc(-c5ccccc5C(C)C)nc43)CC2)n1 [Compound I-501, 9-((1-(1,4-Dimethyl-1H-imidazol-2-yl)piperidin-4-yl)methyl)-2-(2-isopropylphenyl)-7-methyl-7,9-dihydro-8H-purin-8-one] the IC50 was 50 to 200 nM.
For CC(C)c1ccccc1-c1ncc2[nH]c(=O)n(CC3CN(c4nccc(C(F)(F)F)n4)C3)c2n1 [Compound I-502, 2-(2-Isopropylphenyl)-9-((1-(4-(trifluoromethyl)pyrimidin-2-yl)azetidin-3-yl)methyl)-7,9-dihydro-8H-purin-8-one], the IC50 was > 2000 nM.
For Cc1cc(C(=O)N(C)C)nn1-c1ccc(Cn2c(=O)[nH]c3cnc(-c4ccccc4C(C)C)nc32)cc1 [Compound I-503, 1-(4-((2-(2-Isopropylphenyl)-8-oxo-7,8-dihydro-9H-purin-9-yl)methyl)phenyl)-N,N,5-trimethyl-1H-pyrazole-3-carboxamide], the IC50 was < 50 nM.
Cc1cc(C(=O)N(C)C)nn1-c1ccc(Cn2c(=O)[nH]c3cnc(-c4ccccc4C4CC4)nc32)cc1 [Compound I-504, 1-(4-((2-(2-Cyclopropylphenyl)-8-oxo-7,8-dihydro-9H-purin-9-yl)methyl)phenyl)-N,N,5-trimethyl-1H-pyrazole-3-carboxamide] gave an IC50 of 50 to 200 nM.
For CC(C)c1ccccc1-c1ncc2[nH]c(=O)n(CC3(F)CCN(c4cccnc4)CC3)c2n1 [Compound I-505, 9-((4-Fluoro-1-(pyridin-3-yl)piperidin-4-yl)methyl)-2-(2-isopropylphenyl)-7,9-dihydro-8H-purin-8-one], the IC50 was 200 to 2000 nM.
For CC(C)c1ccccc1-c1ncc2[nH]c(=O)n(Cc3ccc(-c4nc(C(F)(F)F)cn4CCO)cc3)c2n1 [Compound I-506, 9-(4-(1-(2-hydroxyethyl)-4-(trifluoromethyl)-1H-imidazol-2-yl)benzyl)-2-(2-isopropylphenyl)-7,9-dihydro-8H-purin-8-one], the IC50 was < 50 nM.
CCn1c(=O)n(Cc2ccc(-c3nc(C(F)(F)F)cn3C)cc2)c2nc(-c3cccnc3C(C)C)ncc21 [Compound I-507, 7-Ethyl-2-(2-isopropylpyridin-3-yl)-9-(4-(1-methyl-4-(trifluoromethyl)-1H-imidazol-2-yl)benzyl)-7,9-dihydro-8H-purin-8-one] was tested, and the IC50 was < 50 nM.
In the case of CC(C)c1ccccc1-c1ncc2[nH]c(=O)n(Cc3cnc(-n4cccn4)cn3)c2n1 [Compound I-508, 9-((5-(1H-Pyrazol-1-yl)pyrazin-2-yl)methyl)-2-(2-isopropylphenyl)-7,9-dihydro-8H-purin-8-one], the IC50 is reported as > 2000 nM.
For CC(C)c1ccccc1-c1ncc2[nH]c(=O)n(Cc3ncc(-n4cccn4)cn3)c2n1 [Compound I-509, 9-((5-(1H-pyrazol-1-yl)pyrimidin-2-yl)methyl)-2-(2-isopropylphenyl)-7,9-dihydro-8H-purin-8-one], the IC50 was > 2000 nM.
With Cc1cc(C)n(-c2cnc(Cn3c(=O)[nH]c4cnc(-c5ccccc5C(C)C)nc43)cn2)n1 [Compound I-510, 9-((5-(3,5-Dimethyl-1H-pyrazol-1-yl)pyrazin-2-yl)methyl)-2-(2-isopropylphenyl)-7,9-dihydro-8H-purin-8-one] the IC50 was 50 to 200 nM.
With Cc1cc(C)n(-c2cnc(Cn3c(=O)[nH]c4cnc(-c5ccccc5C(C)C)nc43)nc2)n1 [Compound I-511, 9-((5-(3,5-Dimethyl-1H-pyrazol-1-yl)pyrimidin-2-yl)methyl)-2-(2-isopropylphenyl)-7,9-dihydro-8H-purin-8-one] the IC50 was 200 to 2000 nM.
CC(C)c1ccccc1-c1ncc2[nH]c(=O)n(Cc3ccc(N4CCCC4=O)cc3)c2n1 [Compound I-512, 2-(2-Isopropylphenyl)-9-(4-(2-oxopyrrolidin-1-yl)benzyl)-7,9-dihydro-8H-purin-8-one] gave an IC50 of 50 to 200 nM.
CC(C)c1ccccc1-c1ncc2[nH]c(=O)n(Cc3ccc(-c4nnn[nH]4)cc3)c2n1 [Compound I-513, 9-(4-(1H-tetrazol-5-yl)benzyl)-2-(2-isopropylphenyl)-7,9-dihydro-8H-purin-8-one] was tested, and the IC50 was > 2000 nM.
For Cc1nc(N2CCC(F)(Cn3c(=O)[nH]c4cnc(-c5ccccc5C(C)C)nc43)CC2)c(C)s1 [Compound I-514, 9-((1-(2,5-Dimethylthiazol-4-yl)-4-fluoropiperidin-4-yl)methyl)-2-(2-isopropylphenyl)-7,9-dihydro-8H-purin-8-one], the IC50 was < 50 nM.
In the case of CC(C)c1ncccc1-c1ncc2c(n1)n(Cc1ccc(-c3nc(C4CC4)cn3C)cc1)c(=O)n2C [Compound I-515, 9-(4-(4-cyclopropyl-1-methyl-1H-imidazol-2-yl)benzyl)-2-(2-isopropylpyridin-3-yl)-7-methyl-7,9-dihydro-8H-purin-8-one], the IC50 is reported as 50 to 200 nM.
For CC(C)c1cnccc1-c1ncc2c(n1)n(Cc1ccc(-n3cccn3)cc1)c(=O)n2C [Compound I-516, 9-(4-(1H-Pyrazol-1-yl)benzyl)-2-(3-isopropylpyridin-4-yl)-7-methyl-7,9-dihydro-8H-purin-8-one], the IC50 was > 2000 nM.
With CC(C)c1cccnc1-c1ncc2c(n1)n(Cc1ccc(-n3cccn3)cc1)c(=O)n2C [Compound I-517, 9-(4-(1H-Pyrazol-1-yl)benzyl)-2-(3-isopropylpyridin-2-yl)-7-methyl-7,9-dihydro-8H-purin-8-one] the IC50 was > 2000 nM.
In the case of COCCn1cc(-c2ccc(Cn3c(=O)[nH]c4cnc(-c5ccccc5C(C)C)nc43)cc2)cn1 [Compound I-518, 2-(2-Isopropylphenyl)-9-(4-(1-(2-methoxyethyl)-1H-pyrazol-4-yl)benzyl)-7,9-dihydro-8H-purin-8-one], the IC50 is reported as 50 to 200 nM.
For CC(C)c1ccccc1-c1ncc2[nH]c(=O)n(Cc3ccc(-c4cnn(C5CCOCC5)c4)cc3)c2n1 [Compound I-519, 2-(2-Isopropylphenyl)-9-(4-(1-(tetrahydro-2H-pyran-4-yl)-1H-pyrazol-4-yl)benzyl)-7,9-dihydro-8H-purin-8-one], the IC50 was 200 to 2000 nM.
Compound CC(C)c1ccccc1-c1ncc2[nH]c(=O)n(Cc3ccc(-c4cnn(CCN(C)C)c4)cc3)c2n1 [Compound I-520, 9-(4-(1-(2-(Dimethylamino)ethyl)-1H-pyrazol-4-yl)benzyl)-2-(2-isopropylphenyl)-7,9-dihydro-8H-purin-8-one] has an IC50 of 200 to 2000 nM.
In the case of CC(C)c1ccccc1-c1ncc2[nH]c(=O)n(Cc3ccc(-c4cn(CCN(C)C)nn4)cc3)c2n1 [Compound I-521, 9-(4-(1-(2-(Dimethylamino)ethyl)-1H-1,2,3-triazol-4-yl)benzyl)-2-(2-isopropylphenyl)-7,9-dihydro-8H-purin-8-one], the IC50 is reported as 200 to 2000 nM.
Compound CC(C)c1ccccc1-c1ncc2[nH]c(=O)n(Cc3ccc(-c4cn(CCO)nn4)cc3)c2n1 [Compound I-522, 9-(4-(1-(2-Hydroxyethyl)-1H-1,2,3-triazol-4-yl)benzyl)-2-(2-isopropylphenyl)-7,9-dihydro-8H-purin-8-one] has an IC50 of 200 to 2000 nM.
For CC(C)c1ccccc1-c1ncc2[nH]c(=O)n(Cc3ccc(-c4cn[nH]n4)cc3)c2n1 [Compound I-523, 9-(4-(1H-1,2,3-triazol-5-yl)benzyl)-2-(2-isopropylphenyl)-7,9-dihydro-8H-purin-8-one], the IC50 was 50 to 200 nM.
COC(=O)c1ccccc1-c1ncc2[nH]c(=O)n(Cc3ccc(-c4nc(C(F)(F)F)cn4C)cc3)c2n1 [Compound I-524, Methyl 2-(9-(4-(1-Methyl-4-(trifluoromethyl)-1H-imidazol-2-yl)benzyl)-8-oxo-8,9-dihydro-7H-purin-2-yl)benzoate] was tested, and the IC50 was < 50 nM.
With Cn1cc(C(F)(F)F)nc1-c1ccc(Cn2c(=O)[nH]c3cnc(-c4ccccc4C(C)(C)O)nc32)cc1 [Compound I-525, 2-(2-(2-hydroxypropan-2-yl)phenyl)-9-(4-(1-methyl-4-(trifluoromethyl)-1H-imidazol-2-yl)benzyl)-7,9-dihydro-8H-purin-8-one] the IC50 was < 50 nM.
In the case of Cn1cc(C(F)(F)F)nc1-c1ccc(Cn2c(=O)[nH]c3cnc(-c4ccccc4C4(O)CC4)nc32)cc1 [Compound I-526, 2-(2-(1-Hydroxycyclopropyl)phenyl)-9-(4-(1-methyl-4-(trifluoromethyl)-1H-imidazol-2-yl)benzyl)-7,9-dihydro-8H-purin-8-one], the IC50 is reported as < 50 nM.
Work on CCC(=O)c1ccccc1-c1ncc2[nH]c(=O)n(Cc3ccc(-c4nc(C(F)(F)F)cn4C)cc3)c2n1 [Compound I-527, 9-(4-(1-methyl-4-(trifluoromethyl)-1H-imidazol-2-yl)benzyl)-2-(2-propionylphenyl)-7,9-dihydro-8H-purin-8-one] yielded an IC50 of 200 to 2000 nM.
For CC(C)(O)c1ccccc1-c1ncc2[nH]c(=O)n(Cc3ccc(-n4cccn4)cc3)c2n1 [Compound I-528, 9-(4-(1H-Pyrazol-1-yl)benzyl)-2-(2-(2-hydroxypropan-2-yl)phenyl)-7,9-dihydro-8H-purin-8-one], the IC50 was 200 to 2000 nM.
Compound CC(C)c1ccccc1-c1ncc2c(n1)n(Cc1ccc(-c3ncc[nH]3)cc1)c(=O)n2C [Compound I-529, 9-(4-(1H-Imidazol-2-yl)benzyl)-2-(2-isopropylphenyl)-7-methyl-7,9-dihydro-8H-purin-8-one] has an IC50 of 50 to 200 nM.
